According to patent US20250179059A1 (The Regents of the University of California, priority 2021, published 2025):

Columns and labels:
[1] = biological target: T1, human BRD4 bromodomain II (Homo sapiens, UniProt O60885); assay: Bromodomain binding assay (AlphaScreen), BRD4 BDII; conditions: AlphaScreen assay, Table C2; read-out: BRD4 BDII IC50
T1 construct: human BRD4 bromodomain II [based on Genbank NM_058243, residues 349-460]; host or cells: E. coli
Outline: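 Tagged BRD4 BDI or BDII constructs, expressed in E. coli, competed against a K5/K8/K12/K16-acetylated biotin-H4 peptide. Proximity signal between bead pairs after room-temperature incubations gave concentration-response curves, from which IC50 was derived.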

[2] = tested on: human SKM-1 acute myeloid leukemia cells; assay: SKM-1 antiproliferation cell-based assay (ATPlite); conditions: Homo sapiens, SKM-1, 96 h, SKM-1 antiproliferation assay, 4 days, Table C2
Outline: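 Log-phase cells in RPMI 1640/15% FBS were seeded at 34722 cells/mL and exposed for 4 days to nine-concentration DMSO serial dilutions in triplicate. Viability was read as ATP luminescence (ATPlite 1step), and IC50 values came from variable-slope non-linear regression.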

Structure (SMILES) | IC50 [1] [nM] | GI50 [2] [nM]
CC(=O)N(C)C1(c2cccc(-c3cc(F)cc(-c4ccc(-n5ccn(C)c5=O)c(Cl)c4)c3O)c2)CC1 [Example 794, N-(1-(3″-chloro-5′-fluoro-2′-hydroxy-4″-(3-methyl-2-oxo-2,3-dihydro-1H-imidazol-1-yl)-[1,1′:3′,1″-terphenyl]-3-yl)cyclopropyl)-N-methylacetamide] | 10 to 100 | 300 to 3000
CC(=O)NC(C)(C)C#Cc1cccc(-c2cc(F)cc(-c3ccc(-n4ccn(C)c4=O)c(Cl)c3)c2O)c1 [Example 795, N-(4-(3″-chloro-5′-fluoro-2′-hydroxy-4″-(3-methyl-2-oxo-2,3-dihydro-1H-imidazol-1-yl)-[1,1′:3′,1″-terphenyl]-3-yl)-2-methylbut-3-yn-2-yl)acetamide] | > 100 | 300 to 3000
Cn1ccn(-c2ccc(-c3cc(F)cc(-c4ccc5ncc(C(C)(C)O)cc5c4)c3O)cc2Cl)c1=O [Example 796, 1-(3-chloro-5′-fluoro-2′-hydroxy-3′-(3-(2-hydroxypropan-2-yl)quinolin-6-yl)-[1,1′-biphenyl]-4-yl)-3-methyl-1H-imidazol-2(3H)-one] | 1 to 10 | 30 to 300
CC(C)N1CCN(c2cc(-c3cc(F)cc(-c4ccc(-n5ccn(C)c5=O)c(Cl)c4)c3O)cnn2)CC1 [Example 797, 1-(3-chloro-5′-fluoro-2′-hydroxy-3′-(6-(4-isopropylpiperazin-1-yl)pyridazin-4-yl)-[1,1′-biphenyl]-4-yl)-3-methyl-1H-imidazol-2(3H)-one] | 0.01 to 1 | 0.3 to 30
Cn1ccn(-c2ccc(-c3cc(F)cc(-c4cnnc(N5CCN(C(C)(C)C)CC5)c4)c3O)cc2Cl)c1=O [Example 798, 1-(3′-(6-(4-(tert-butyl)piperazin-1-yl)pyridazin-4-yl)-3-chloro-5′-fluoro-2′-hydroxy-[1,1′-biphenyl]-4-yl)-3-methyl-1H-imidazol-2(3H)-one] | 0.01 to 1 | 0.3 to 30
CNC1(c2cccc(-c3cc(F)cc(-c4ccc(-n5ccn(C)c5=O)c(Cl)c4)c3O)c2)CC1 [Example 799, 1-(3-chloro-5′-fluoro-2′-hydroxy-3″-(1-(methylamino)cyclopropyl)-[1,1′:3′,1″-terphenyl]-4-yl)-3-methyl-1H-imidazol-2(3H)-one] | 0.01 to 1 | 30 to 300
Cc1ccc(-c2cc(F)cc(-c3ccc(-n4ccn(C)c4=O)c(Cl)c3)c2O)cc1N1CCN(C(C)(C)C)CC1 [Example 800, 1-(3″-(4-(tert-butyl)piperazin-1-yl)-3-chloro-5′-fluoro-2′-hydroxy-4″-methyl-[1,1′:3′,1″-terphenyl]-4-yl)-3-methyl-1H-imidazol-2(3H)-one] | 0.01 to 1 | 0.3 to 30
Cn1ccn(-c2ccc(-c3cc(F)cc(-c4ccc5ccc(C(C)(C)O)cc5c4)c3O)cc2Cl)c1=O [Example 801, 1-(3-chloro-5′-fluoro-2′-hydroxy-3′-(7-(2-hydroxypropan-2-yl)naphthalen-2-yl)-[1,1′-biphenyl]-4-yl)-3-methyl-1H-imidazol-2(3H)-one] | 1 to 10 | 30 to 300
COc1ncc(-c2cc(F)cc(-c3ccc(-n4ccn(C)c4=O)c(Cl)c3)c2O)cc1N1CCN(C(C)(C)C)CC1 [Example 802, 1-(3′-(5-(4-(tert-butyl)piperazin-1-yl)-6-methoxypyridin-3-yl)-3-chloro-5′-fluoro-2′-hydroxy-[1,1′-biphenyl]-4-yl)-3-methyl-1,3-dihydro-2H-imidazol-2-one] | 0.01 to 1 | 0.3 to 30
Cn1ccn(-c2ccc(-c3cc(F)cc(-c4cccc(C5(N)CC5)c4)c3O)cc2Cl)c1=O [Example 803, 1-(3″-(1-aminocyclopropyl)-3-chloro-5′-fluoro-2′-hydroxy-[1,1′:3′,1″-terphenyl]-4-yl)-3-methyl-1H-imidazol-2(3H)-one] | 1 to 10 | 30 to 300
CC(C)N1CCN(c2cc(-c3cc(F)cc(-c4ccc(-n5ccn(C)c5=O)c(Cl)c4)c3O)cnc2C(F)(F)F)CC1 [Example 804, 1-(3-chloro-5′-fluoro-2′-hydroxy-3′-(5-(4-isopropylpiperazin-1-yl)-6-(trifluoromethyl)pyridin-3-yl)-[1,1′-biphenyl]-4-yl)-3-methyl-1H-imidazol-2(3H)-one] | 1 to 10 | 0.3 to 30
Cn1ccn(-c2ccc(-c3cc(F)cc(-c4cnc(C(F)(F)F)c(N5CCN(C(C)(C)C)CC5)c4)c3O)cc2Cl)c1=O [Example 805, 1-(3′-(5-(4-(tert-butyl)piperazin-1-yl)-6-(trifluoromethyl)pyridin-3-yl)-3-chloro-5′-fluoro-2′-hydroxy-[1,1′-biphenyl]-4-yl)-3-methyl-1H-imidazol-2(3H)-one] | 1 to 10 | 30 to 300
Cn1ccn(-c2ccc(-c3cc(F)cc(-c4ccnc(N5CC6CCC6(N)C5)c4)c3O)cc2Cl)c1=O (centres unmarked) [Example 806, 1-(3′-(2-(1-amino-3-azabicyclo[3.2.0]heptan-3-yl)pyridin-4-yl)-3-chloro-5′-fluoro-2′-hydroxy-[1,1′-biphenyl]-4-yl)-3-methyl-1H-imidazol-2(3H)-one] | 1 to 10 | 0.3 to 30
Cn1ccn(-c2ccc(-c3cc(F)cc(-c4cccc(N5CC[C@@](C)(O)C5)c4)c3O)cc2Cl)c1=O [Example 807, (R)-1-(3-chloro-5′-fluoro-2′-hydroxy-3″-(3-hydroxy-3-methylpyrrolidin-1-yl)-[1,1′:3′,1″-terphenyl]-4-yl)-3-methyl-1H-imidazol-2(3H)-one] | 1 to 10 | 30 to 300
Cc1ccc(-c2cc(F)cc(-c3ccc(-n4ccn(C)c4=O)c(Cl)c3)c2O)cc1N1CC[C@@](C)(O)C1 [Example 808, (R)-1-(3-chloro-5′-fluoro-2′-hydroxy-3″-(3-hydroxy-3-methylpyrrolidin-1-yl)-4″-methyl-[1,1′:3′,1″-terphenyl]-4-yl)-3-methyl-1H-imidazol-2(3H)-one] | 1 to 10 | 30 to 300
Cn1ccn(-c2ccc(-c3cc(F)cc(-c4ccc(Cl)c(N5CCN(C(C)(C)C)CC5)c4)c3O)cc2Cl)c1=O [Example 809, 1-(3″-(4-(tert-butyl)piperazin-1-yl)-3,4″-dichloro-5′-fluoro-2′-hydroxy-[1,1′:3′,1″-terphenyl]-4-yl)-3-methyl-1H-imidazol-2(3H)-one] | 1 to 10 | 0.3 to 30
Cn1ccn(-c2ccc(-c3cc(F)cc(-c4ccc(C(F)(F)F)c(N5CCN(C(C)(C)C)CC5)c4)c3O)cc2Cl)c1=O [Example 810, 1-(3″-(4-(tert-butyl)piperazin-1-yl)-3-chloro-5′-fluoro-2′-hydroxy-4″-(trifluoromethyl)-[1,1′:3′,1″-terphenyl]-4-yl)-3-methyl-1H-imidazol-2(3H)-one] | 1 to 10 | 30 to 300
CC(C)N1CCN(c2cc(-c3cc(F)cc(-c4ccc(-n5ccn(C)c5=O)c(Cl)c4)c3O)ccc2C(F)(F)F)CC1 [Example 811, 1-(3-chloro-5′-fluoro-2′-hydroxy-3″-(4-isopropylpiperazin-1-yl)-4″-(trifluoromethyl)-[1,1′:3′,1″-terphenyl]-4-yl)-3-methyl-1H-imidazol-2(3H)-one] | 1 to 10 | 30 to 300
COc1ncc(-c2cc(F)cc(-c3ccc(-n4ccn(C)c4=O)c(Cl)c3)c2O)cc1N1CC[C@@](C)(O)C1 [Example 812, (R)-1-(3-chloro-5′-fluoro-2′-hydroxy-3′-(5-(3-hydroxy-3-methylpyrrolidin-1-yl)-6-methoxypyridin-3-yl)-[1,1′-biphenyl]-4-yl)-3-methyl-1H-imidazol-2(3H)-one] | 0.01 to 1 | 0.3 to 30
